Results as given in patent publication US10526311B2 (ASTEX THERAPEUTICS LIMITED, priority 2015, dated 2020).
pIC50: −log10 of the molar value. Where two headings read alike, the source gives them in different places.

What was measured:
[1] = biological target: MDM2-p53 interaction (in vitro translated MDM2, biotinylated IP3 peptide) (Homo sapiens, UniProt Q00987); assay: MDM2-p53 interaction 96-well plate binding assay (ELISA)
[2] = system: SN40R2 (MDM2 amplified, p53 mutated osteosarcoma); assay: Protocol A: SN40R2 growth inhibition (SRB); conditions: 72 h; for IC50: read-out: SN40R2 IC50 (μM) (Protocol A)
[3] = system: SJSA-1 (MDM2 amplified, p53 wild-type osteosarcoma); assay: Protocol A: SJSA-1 growth inhibition (SRB); conditions: Homo sapiens, SJSA-1, 72 h, read-out: SJSA-1 IC50 (μM) (Protocol A), SJSA-1, Protocol A (SRB), 72 hrs
SJSA-1 = assay: Protocol B: SJSA-1 CellTiter-Glo cell viability
[4] = Homo sapiens, SJSA-1, 72 h, read-out: SJSA1 IC50 (μM) (Protocol B), SJSA-1, Protocol B (CellTiter-Glo), 72 hrs
[5] = read-out: SJSA1 IC50 (μM) (Protocol B), SJSA-1, Protocol B (CellTiter-Glo), 72 hrs

MDM2-p53 interaction (in vitro translated MDM2, biotinylated IP3 peptide), sequence (Q00987 whole entry): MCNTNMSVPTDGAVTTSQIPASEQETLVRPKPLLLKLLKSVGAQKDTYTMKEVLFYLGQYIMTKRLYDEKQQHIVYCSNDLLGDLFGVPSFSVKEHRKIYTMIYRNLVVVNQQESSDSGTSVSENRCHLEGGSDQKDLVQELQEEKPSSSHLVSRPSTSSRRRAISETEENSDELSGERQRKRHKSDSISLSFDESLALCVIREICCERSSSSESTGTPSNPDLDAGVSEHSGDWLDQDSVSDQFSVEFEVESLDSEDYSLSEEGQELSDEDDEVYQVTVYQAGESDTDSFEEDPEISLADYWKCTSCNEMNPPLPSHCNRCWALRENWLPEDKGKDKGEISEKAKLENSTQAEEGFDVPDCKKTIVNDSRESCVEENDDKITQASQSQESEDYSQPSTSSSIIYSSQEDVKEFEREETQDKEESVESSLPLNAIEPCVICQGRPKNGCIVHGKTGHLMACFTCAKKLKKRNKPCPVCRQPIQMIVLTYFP

SMILES | IC50 [3] [µM] | IC50 [2] [µM] | IC50 (SJSA-1; [4]) [µM] | further results
CO[C@]1(c2ccc(Cl)cc2)c2ccc(C(C)(O)CN3CCOCC3=O)cc2C(=O)N1Cc1ccc(Cl)cn1 (single isomer, unassigned) [Example 328] |  |  |  | inhibition at 0.1 µM ([1]; @ 0.10 μM, read-out: MDM2 % @ concentration): 42%; pIC50 ([2]; read-out: SN40R2 IC50 (Protocol A)): 4.60
CO[C@]1(c2ccc(Cl)cc2)c2ccc(C(C)(O)CN3CC(=O)NC3=O)cc2C(=O)N1Cc1ccc(Cl)cn1 (single isomer, unassigned) [Example 329] |  |  |  | MDM2 % @ concentration ([1]; @ 0.30 μM): 61% @ 0.30; inhibition at 30 µM ([2]; read-out: SN40R2 (Protocol A) % at concentration): 8%
CCC(O)(c1cc(F)c2c(c1)C(=O)N(Cc1ncc(Cl)cc1O)[C@@]2(OCCO)c1ccc(Cl)cc1)c1cn(C)cn1 (single isomer, unassigned) [Example 443] |  | 38 | 0.093 | 
CCC(O)(c1cc(F)c2c(c1)C(=O)N(Cc1ccc(C#N)cn1)[C@@]2(O[C@H]1CCOC1)c1ccc(Cl)cc1)C1(F)CCOCC1 (single isomer, unassigned) [Example 446] |  | 29 |  | MDM2 % @ concentration ([1]; @ 0.0010 μM): 76% @ 0.0010; IC50 (SJSA-1; [5]): 0.023 µM
CCC(O)(c1cc(F)c2c(c1)C(=O)N(Cc1ncc(Cl)cn1)[C@@]2(O[C@H]1CCOC1)c1ccc(Cl)cc1)C1CCN(C)CC1 (single isomer, unassigned) [Example 449] | 0.041 | 18 | 0.012 | 
CCC(O)(c1cc(F)c2c(c1)C(=O)N(Cc1ncc(Cl)cc1O)[C@@]2(O[C@H]1C[C@@H](O)C1)c1ccc(Cl)cc1)c1cn(C)cn1 (single isomer, unassigned) [Example 487] | 0.12 | 27 | 0.025 | 
CCC(O)(c1cc(F)c2c(c1)C(=O)N(Cc1ccc(C#N)cn1)[C@@]2(O[C@H]1C[C@@H](O)C1)c1ccc(Cl)cc1)[C@H]1CC[C@H](O)CC1 (single isomer, unassigned) [Example 518] | 0.058 |  |  | inhibition at 0.001 µM ([1]; @ 0.0010 μM, read-out: MDM2 % @ concentration): 79%; IC50 (SJSA-1; [5]): 0.065 µM
CN1CCC(C(C)(O)c2cc(F)c3c(c2)C(=O)N(Cc2ncc(Cl)cn2)[C@@]3(OCC2(F)COC2)c2ccc(Cl)cc2)CC1 (single isomer, unassigned) [Example 558] | 0.22 | 35 | 0.082 | 
CCC(O)(c1cc(F)c2c(c1)C(=O)N(Cc1ncc(C#N)cn1)[C@@]2(O[C@H]1CCOC1)c1ccc(Cl)cc1)C1(F)CCN(C)CC1 (single isomer, unassigned) [Example 561] | 0.021 | 26 | 0.065 | 
CCC(O)(c1cc(F)c2c(c1)C(=O)N(Cc1ncc(Cl)cn1)[C@@]2(OCC1(C#N)CC1)c1ccc(Cl)cc1)C1(F)CCN(C)CC1 (single isomer, unassigned) [Example 564] |  | 16 | 0.00038 | 
CCC(O)(c1cc(F)c2c(c1)C(=O)N(Cc1ncc(Cl)cn1)[C@@]2(OCCO)c1ccc(Cl)cc1)C1(F)CCN(C)CC1 (single isomer, unassigned) [Example 565] | 0.045 | 33 | 0.035 | 
CCC(O)(c1cc(F)c2c(c1)C(=O)N(Cc1ncc(Cl)cn1)[C@@]2(O[C@H]1CCOC1)c1ccc(Cl)cc1)C1(F)CCN(C)CC1 (single isomer, unassigned) [Example 571] | 0.023 | 17 | 0.0085 | 
CCC(O)(c1cc(F)c2c(c1)C(=O)N(Cc1ncc(Cl)cn1)[C@@]2(OC[C@@H](C)O)c1ccc(Cl)cc1)C1(F)CCN(C)CC1 (single isomer, unassigned) [Example 572] |  | 18 | 0.022 | 
CCC(O)(c1cc(F)c2c(c1)C(=O)N(Cc1ncc(C#N)cn1)[C@@]2(OCC1(C#N)CC1)c1ccc(Cl)cc1)C1(F)CCN(C)CC1 (single isomer, unassigned) [Example 574] | 0.021 | 17 | 0.016 | 
CCC(O)(c1cc(F)c2c(c1)C(=O)N(Cc1ncc(C#N)cn1)[C@@]2(OCCO)c1ccc(Cl)cc1)[C@H]1CC[C@H](O)CC1 (stereo partly drawn) [Example 510, 2-{[(1R)-1-(4-chlorophenyl)-7-fluoro-5-{1-hydroxy-1-[trans-4-hydroxycyclohexyl]propyl}-1-(2-hydroxyethoxy)-3-oxo-2,3-dihydro-1H-isoindol-2-yl]methyl}pyrimidine-5-carbonitrile] | 0.084 |  | 0.073 | 
[2H]C([2H])(O)C1(C([2H])([2H])O[C@]2(c3ccc(Cl)cc3)c3c(F)cc(C(C)(C)O)cc3C(=O)N2Cc2ncc(C#N)cn2)CC1 [Example 513, 2-{[(1R)-1-(4-chlorophenyl)-7-fluoro-1-({1-[hydroxydideuteromethyl]cyclo-propyl}dideuteromethoxy)-5-(2-hydroxypropan-2-yl)-3-oxo-2,3-dihydro-1H-isoindol-2-yl]methyl}pyrimidine-5-carbonitrile] | 0.26 |  | 0.38 | pIC50 [1]: 8.51
CC[C@@](O)(c1cc(F)c2c(c1)C(=O)N(Cc1ncc(C#N)cn1)[C@@]2(O[C@H]1CCOC1)c1ccc(Cl)cc1)C1CCN(C)CC1 [Example 557, 2-{[(1R)-1-(4-chlorophenyl)-7-fluoro-5-[(1S)-1-hydroxy-1-(1-methylpiperidin-4-yl)propyl]-3-oxo-1-[(3S)-oxolan-3-yloxy]-2,3-dihydro-1H-isoindol-2-yl]methyl}pyrimidine-5-carbonitrile] | 0.25 |  | 0.037 | 

Now from value to compound, other results behind:

IC50 [3] [µM] | IC50 [2] [µM] | IC50 (SJSA-1; [4]) [µM] | SMILES | further results
0.1 | 42 |  | CCC(O)(c1cc(F)c2c(c1)C(=O)N(Cc1ccc(C#N)cn1)[C@@]2(O[C@H]1CCOC1)c1ccc(Cl)cc1)c1ccn(C)n1 (single isomer, unassigned) [Example 336] | 
0.039 | 45 | 0.046 | CCC(O)(c1cc(F)c2c(c1)C(=O)N(Cc1ccc(C#N)cn1)[C@@]2(OC[C@@H](C)O)c1ccc(Cl)cc1)C1(F)CCOCC1 (single isomer, unassigned) [Example 497] | 
0.035 | 37 | 0.033 | CCC(O)(c1cc(F)c2c(c1)C(=O)N(Cc1ccc(C#N)cn1)[C@@]2(OC)c1ccc(Cl)cc1)[C@H]1CC[C@H](O)CC1 (single isomer, unassigned) [Example 521] | 
0.032 | 7.4 | 0.041 | CCC(O)(c1cc(F)c2c(c1)C(=O)N(Cc1ncc(Cl)cn1)[C@@]2(OC)c1ccc(Cl)cc1)C1(F)CCNCC1 (single isomer, unassigned) [Example 544] | 
0.14 | 6.3 | 0.17 | CCC(O)(c1cc(F)c2c(c1)C(=O)N(Cc1ccc(Cl)cn1)[C@@]2(O[C@H]1CCOC1)c1ccc(Cl)cc1)C1(F)CCNCC1 (single isomer, unassigned) [Example 548] | 
0.028 | 21 | 0.02 | CCC(O)(c1cc(F)c2c(c1)C(=O)N(Cc1ncc(Cl)cn1)[C@@]2(OC)c1ccc(Cl)cc1)C1(F)CCN(C2COC2)CC1 (single isomer, unassigned) [Example 552] | 
 | 15 | 0.027 | CCC(O)(c1cc(F)c2c(c1)C(=O)N(Cc1ncc(Cl)cn1)[C@@]2(OC)c1ccc(Cl)cc1)C1(F)CCN(C)CC1 (single isomer, unassigned) [Example 563] | 
0.031 | 36 |  | CC[C@@](O)(c1cc(F)c2c(c1)C(=O)N(Cc1ncc(Cl)cn1)[C@@]2(OC)c1ccc(Cl)cc1)C1CCN(C2COC2)CC1 [Example 551, (3R)-3-(4-chlorophenyl)-2-[(5-chloropyrimidin-2-yl)methyl]-4-fluoro-6-[(1S)-1-hydroxy-1-[1-(oxetan-3-yl)piperidin-4-yl]propyl]-3-methoxy-2,3-dihydro-1H-isoindol-1-one] | 
